In PubChem BioAssay (NCI):
Values joined by “and” are separate entries in the source; they are usually repeats but may differ in a detail not shown here. Identical values can stand only once.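 Growth conditions: 96-well plates. Treatment: test compound, 48 hours, 5 concentrations. Analysis: linear interpolation between bracketing concentrations; unreached endpoints set to highest concentration. The concentration for 50% growth inhibition is given as GI50. TGI: concentration producing complete growth inhibition.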

Columns and labels:
Assay in all cases: NCI anticancer screen, dose series, 48 h
HCC-2998 colon = tested on: HCC-2998 colon
UO-31 renal = tested on: UO-31 renal
HOP-62 NSCLC = tested on: HOP-62 NSCLC
HCT-15 colon = tested on: HCT-15 colon
MOLT-4 leukemia = tested on: MOLT-4 leukemia
RPMI-8226 leukemia = tested on: RPMI-8226 leukemia
MALME-3M melanoma = tested on: MALME-3M melanoma
CCRF-CEM leukemia = tested on: CCRF-CEM leukemia
HL-60(TB) leukemia = tested on: HL-60(TB) leukemia
MDA-MB-231 breast = tested on: MDA-MB-231 breast

SMILES	TGI (HCC-2998 colon)	TGI (UO-31 renal)	TGI (HOP-62 NSCLC)	TGI (HCT-15 colon)	TGI (MOLT-4 leukemia)	TGI (RPMI-8226 leukemia)	TGI (MALME-3M melanoma)	GI50 (CCRF-CEM leukemia)	TGI (CCRF-CEM leukemia)	TGI (HL-60(TB) leukemia)	TGI (MDA-MB-231 breast)	GI50 (HCC-2998 colon)	GI50 (UO-31 renal)	GI50 (HOP-62 NSCLC)	GI50 (HCT-15 colon)	GI50 (MOLT-4 leukemia)	GI50 (RPMI-8226 leukemia)	GI50 (MALME-3M melanoma)	GI50 (HL-60(TB) leukemia)	GI50 (MDA-MB-231 breast)
CCOc1ccc(NCc2cc(OC)c(OC)c(OC)c2)cc1	98.7 µM and > 50 µM	> 100 µM	> 36.6 µM and 24.7 µM	45.9 µM and 32.7 µM	> 100 µM	57 µM and > 74.6 µM	> 100 µM	0.759 µM and 1.7 µM	> 74.9 µM	19.2 µM and 33.8 µM	> 100 µM	–	–	–	–	–	–	–	–	–
Oc1ccc(CCCCCCc2ccc(O)cc2)cc1	23.2 µM	15 µM	23.4 µM	26.6 µM	27.9 µM	> 69 µM	29.6 µM	0.0471 µM	32.8 µM	18.7 µM	25.9 µM	11 µM	2.36 µM	10.3 µM	12.3 µM	0.566 µM	12.1 µM	13.3 µM	0.839 µM	9.66 µM
OCc1ccc(-c2nn(Cc3ccccc3)c3ccccc23)o1	36.6 µM and 28 µM	57.4 µM and > 84.7 µM	53.8 µM and 30.2 µM	49.2 µM and 41.4 µM	62.2 µM and 37.4 µM	43.8 µM and 15.3 µM	76.3 µM and 55.5 µM	24.3 µM and 25.5 µM	> 95.9 µM	40.5 µM and 58.3 µM	60.3 µM and 55.2 µM	15.5 µM and 14.8 µM	13.7 µM and 23.8 µM	15.8 µM and 2.86 µM	17.4 µM and 20.1 µM	–	14.3 µM and 3.15 µM	24.3 µM and 21.1 µM	15.6 µM and 19 µM	19.6 µM and 22.2 µM
O=C(CCl)N1c2ccccc2Sc2c1ccc1ccccc21	3.59 µM	3.8 µM	12.9 µM	4.83 µM	> 100 µM	13.1 µM	7 µM	0.696 µM	36.6 µM	8.98 µM	4.36 µM	2.02 µM	1.71 µM	3.29 µM	1.92 µM	2.49 µM	3.08 µM	2.75 µM	3.06 µM	2.09 µM
CC1OC2CC(=O)OC2C2=C1C(=O)c1c(O)c3c(c(O)c1C2=O)C1CC(O)C3(O)C(C)O1 (stereo not given)	1.67 µM	1.53 µM	2.8 µM	3.69 µM	0.64 µM	0.876 µM	0.385 µM	0.26 µM	13.6 µM	1.06 µM	0.712 µM	0.442 µM	0.3 µM	0.826 µM	0.367 µM	0.244 µM	0.267 µM	0.142 µM	0.234 µM	0.25 µM
Cc1cc(C(C#N)c2ccc(Cl)cc2)c(Cl)cc1NC(=O)c1cc(I)cc(I)c1O (stereo not given)	15.4 µM and 24 µM	31.4 µM and 35.1 µM	34.4 µM and 32.4 µM	19.8 µM and 31.7 µM	19.3 µM and 53.9 µM	13 µM and 43.5 µM	20.2 µM and 27.5 µM	3.87 µM and 17.8 µM	17 µM and 47.1 µM	15.9 µM and 48.9 µM	23.9 µM and 37.9 µM	4.08 µM and 10.8 µM	14.7 µM and 14.8 µM	13.9 µM and 15.2 µM	5.25 µM and 15.8 µM	4.74 µM and 22.6 µM	3.15 µM and 11.1 µM	4.93 µM and 10.4 µM	4.34 µM and 22.1 µM	5.48 µM and 14.2 µM
C[C@H]1[C@H](C)CC[C@]2(C(=O)O)CC[C@]3(C)C(=CC[C@@H]4[C@@]5(C)C/C(=C/c6cccnc6)[C@H](O)C(C)(C)[C@@H]5CC[C@]43C)[C@H]12	43.5 µM	26.4 µM	55.6 µM	52 µM	58.2 µM	41.5 µM	51.2 µM	6.43 µM	40.8 µM	32.6 µM	72.1 µM	15.7 µM	12.5 µM	16.4 µM	10.7 µM	8.74 µM	6.03 µM	18.3 µM	9.83 µM	22.5 µM
